Test results from the NIST ThermoML archive (doi:10.1021/je500784s).
“And” between values parts separate entries of the source, which are not always exact repeats. Equal values may be shown once.

Tests used:
[1] = for vapor or sublimation pressure: Transpiration method; for Normal melting temperature: DTA
[2] = Molar enthalpy of transition or fusion; conditions: Crystal; DSC

Ic1ccccc1 [iodobenzene]
[1], Liquid
Conditions | vapor or sublimation pressure [kPa]
283.8 K | 0.05269
286.8 K | 0.06386
289.9 K | 0.08034
293 K | 0.09644
294 K | 0.1029
296.8 K | 0.1261
299.6 K | 0.1487
302.6 K | 0.1853
305.7 K | 0.2226
308.7 K | 0.2722
311.8 K | 0.3239
314.6 K | 0.3944

Cc1ccccc1I [1-iodo-2-methylbenzene]
[1], Liquid
Conditions | vapor or sublimation pressure [kPa]
283.2 K | 0.01623
288.2 K | 0.02387
293.2 K | 0.0355
301.2 K | 0.06212
304.2 K | 0.07615
307.4 K | 0.0943
310.3 K | 0.1131
313.1 K | 0.1354
316.2 K | 0.1655
319.3 K | 0.1983
322.1 K | 0.2325
325.1 K | 0.2843

Cc1ccc(Br)cc1 [4-bromotoluene]
[1]
Conditions | vapor or sublimation pressure [kPa]
274.5 K, Crystal | 0.01409
277.2 K, Crystal | 0.01853
278.3 K, Crystal | 0.02013
280.2 K, Crystal | 0.02439
282.2 K, Crystal | 0.02935
283.2 K, Crystal | 0.0328
285.5 K, Crystal | 0.04128
286.2 K, Crystal | 0.04379
288.3 K, Crystal | 0.05178
289.6 K, Crystal | 0.05809
291.2 K, Crystal | 0.06948
294.3 K, Crystal | 0.08957
297.3 K, Crystal | 0.1161
298.2 K, Crystal | 0.1223
299.2 K, Crystal | 0.1357
300.8 K, Crystal | 0.1543
301.9 K, Liquid | 0.1746
304.2 K, Liquid | 0.1989
304.9 K, Liquid | 0.2137
307.2 K, Liquid | 0.2422
310.3 K, Liquid | 0.2964
313.2 K, Liquid | 0.3477
314.4 K, Liquid | 0.3671
316.3 K, Liquid | 0.4044
317.5 K, Liquid | 0.4335
319.3 K, Liquid | 0.4827
320.6 K, Liquid | 0.507
322.4 K, Liquid | 0.5742
325.3 K, Liquid | 0.6696
328.2 K, Liquid | 0.7835
331.3 K, Liquid | 0.8879
332.3 K, Liquid | 0.9409
335.3 K, Liquid | 1.1

Conditions | Normal melting temperature [°C]
[1], Crystal | 28.2

Conditions | Molar enthalpy of transition or fusion [kcal/mol]
[2] | 3.56

Brc1ccccc1 [bromobenzene]
[1], Liquid
Conditions | vapor or sublimation pressure [kPa]
276.4 K | 0.1345
278.3 K | 0.1534
282.2 K | 0.1957
283.1 K | 0.2092
285.4 K | 0.2487
286.2 K | 0.2532
288.3 K | 0.2954
289.3 K | 0.3211
291.4 K | 0.3549
292.4 K | 0.3794
293.2 K | 0.4046
294.4 K | 0.4413
295.5 K | 0.4596
297.4 K | 0.5225
300.4 K | 0.6407
303.4 K | 0.7604

Cc1cccc(C)c1Br [2-bromo-1,3-dimethylbenzene]
[1], Liquid
Conditions | vapor or sublimation pressure
274.2 K | 0.00695 kPa
276.2 K | 0.0084 kPa
278.3 K | 0.01013 kPa
281.2 K | 0.01282 kPa
284.2 K | 0.0161 kPa
287.2 K | 0.02071 kPa
290.2 K | 0.02551 kPa
293.3 K | 0.0317 kPa and 0.03214 kPa
293.4 K | 0.03244 kPa
296.3 K | 0.03998 kPa
299.3 K | 0.04922 kPa
302.2 K | 0.06313 kPa
305.3 K | 0.07815 kPa

Cc1cccc(Br)c1 [1-bromo-3-methylbenzene]
[1], Liquid
Conditions | vapor or sublimation pressure
274.2 K | 0.02006 kPa
276.2 K | 0.0234 kPa
278.2 K | 0.02748 kPa
278.3 K | 0.02776 kPa
279.2 K | 0.0289 kPa
280.3 K | 0.03259 kPa
281.3 K | 0.0351 kPa
282.2 K | 0.03686 kPa
282.5 K | 0.03833 kPa
284.2 K | 0.0421 kPa and 0.04171 kPa
287.2 K | 0.05299 kPa
287.3 K | 0.0526 kPa
290.2 K | 0.06611 kPa
290.4 K | 0.06761 kPa
293.2 K | 0.08432 kPa
293.6 K | 0.08569 kPa
296.2 K | 0.09718 kPa
296.7 K | 0.1039 kPa
299.2 K | 0.1199 kPa
299.8 K | 0.1279 kPa
302.2 K | 0.1478 kPa
302.8 K | 0.1548 kPa
305.2 K | 0.18 kPa
308.2 K | 0.2084 kPa and 0.2115 kPa and 0.2068 kPa

Cc1ccccc1Br [2-bromotoluene]
[1], Liquid
Conditions | vapor or sublimation pressure
281.2 K | 0.04946 kPa
284.2 K | 0.06067 kPa
285.2 K | 0.06568 kPa
287.2 K | 0.07592 kPa and 0.07526 kPa
290.2 K | 0.09238 kPa
293.2 K | 0.1131 kPa
296.2 K | 0.1381 kPa
299.2 K | 0.1684 kPa
302.2 K | 0.2053 kPa
305.2 K | 0.25 kPa
308.2 K | 0.3008 kPa [middle of 4 runs]
313.1 K | 0.3903 kPa [middle of 6 runs]

Cc1cccc(I)c1 [1-iodo-3-methylbenzene]
[1], Liquid
Conditions | vapor or sublimation pressure
275.7 K | 0.00715 kPa
279.3 K | 0.00936 kPa
281.9 K | 0.01131 kPa
283.5 K | 0.01241 kPa
286.4 K | 0.0157 kPa
289.3 K | 0.01945 kPa and 0.01996 kPa
293.1 K | 0.02757 kPa
293.2 K | 0.02683 kPa
298.1 K | 0.0403 kPa
298.2 K | 0.03887 kPa
302.9 K | 0.05424 kPa and 0.05679 kPa
308 K | 0.07665 kPa and 0.07718 kPa
313.1 K | 0.1065 kPa

Cc1ccc(I)cc1 [4-iodotoluene]
[1]
Conditions | vapor or sublimation pressure
279.5 K, Crystal | 0.00537 kPa
283.3 K, Crystal | 0.008 kPa
286.3 K, Crystal | 0.01101 kPa
289.4 K, Crystal | 0.01456 kPa
293.2 K, Crystal | 0.0205 kPa and 0.02183 kPa
298.1 K, Crystal | 0.0335 kPa
303 K, Crystal | 0.0526 kPa
308 K, Liquid | 0.08115 kPa
311 K, Liquid | 0.09922 kPa
315 K, Liquid | 0.1261 kPa
319.1 K, Liquid | 0.1599 kPa
323.2 K, Liquid | 0.2025 kPa
328.1 K, Liquid | 0.2776 kPa
332.9 K, Liquid | 0.3665 kPa

Conditions | Normal melting temperature [°C]
[1], Crystal | 34.4

Conditions | Molar enthalpy of transition or fusion [kcal/mol]
[2] | 3.59

Cc1cccc(C)c1I [1-iodo-2,6-dimethylbenzene]
[1], Liquid
Conditions | vapor or sublimation pressure [kPa]
284.5 K | 0.005
288.4 K | 0.00709
291.6 K | 0.00925
296.5 K | 0.014
298.4 K | 0.01572
299.5 K | 0.01696
301.5 K | 0.01972
303.3 K | 0.02303
306.4 K | 0.02867
308.3 K | 0.03267
311.4 K | 0.04222
313.6 K | 0.04835
316.4 K | 0.05818
318.4 K | 0.06657
321.2 K | 0.08028
323.4 K | 0.09228
326.3 K | 0.1123
328.5 K | 0.1277
331.3 K | 0.1526
333.4 K | 0.1721

Cc1ccc(I)c(C)c1 [1-iodo-2,4-dimethylbenzene]
[1], Liquid
Conditions | vapor or sublimation pressure
293.5 K | 0.00972 kPa
298.4 K | 0.01434 kPa
301.4 K | 0.01827 kPa
303.4 K | 0.02175 kPa
306.3 K | 0.02654 kPa
308.3 K | 0.03017 kPa
311.3 K | 0.03876 kPa
313.3 K | 0.04322 kPa
316.4 K | 0.05407 kPa
318.6 K | 0.06284 kPa
321.4 K | 0.07438 kPa
323.4 K | 0.08333 kPa
326.4 K | 0.1058 kPa and 0.1032 kPa
328.5 K | 0.1158 kPa
